Tests used:
[1] = target: mGlu7 (Homo sapiens, UniProt Q14831); assay: Selectivity versus additional mGlus; format: cell-based
[2] = target: mGlu2 (Homo sapiens, UniProt Q14416); assay: Selectivity versus additional mGlus; format: cell-based
[3] = target: mGlu8 (Homo sapiens, UniProt O00222); assay: Selectivity versus additional mGlus; format: cell-based
[4] = target: mGlu3 (Homo sapiens, UniProt Q14832); assay: Selectivity versus additional mGlus; format: cell-based
[5] = target: mGlu4 (Homo sapiens, UniProt Q14833); assay: Selectivity versus additional mGlus; format: cell-based
mGlu4, sequence (Q14833 33-912): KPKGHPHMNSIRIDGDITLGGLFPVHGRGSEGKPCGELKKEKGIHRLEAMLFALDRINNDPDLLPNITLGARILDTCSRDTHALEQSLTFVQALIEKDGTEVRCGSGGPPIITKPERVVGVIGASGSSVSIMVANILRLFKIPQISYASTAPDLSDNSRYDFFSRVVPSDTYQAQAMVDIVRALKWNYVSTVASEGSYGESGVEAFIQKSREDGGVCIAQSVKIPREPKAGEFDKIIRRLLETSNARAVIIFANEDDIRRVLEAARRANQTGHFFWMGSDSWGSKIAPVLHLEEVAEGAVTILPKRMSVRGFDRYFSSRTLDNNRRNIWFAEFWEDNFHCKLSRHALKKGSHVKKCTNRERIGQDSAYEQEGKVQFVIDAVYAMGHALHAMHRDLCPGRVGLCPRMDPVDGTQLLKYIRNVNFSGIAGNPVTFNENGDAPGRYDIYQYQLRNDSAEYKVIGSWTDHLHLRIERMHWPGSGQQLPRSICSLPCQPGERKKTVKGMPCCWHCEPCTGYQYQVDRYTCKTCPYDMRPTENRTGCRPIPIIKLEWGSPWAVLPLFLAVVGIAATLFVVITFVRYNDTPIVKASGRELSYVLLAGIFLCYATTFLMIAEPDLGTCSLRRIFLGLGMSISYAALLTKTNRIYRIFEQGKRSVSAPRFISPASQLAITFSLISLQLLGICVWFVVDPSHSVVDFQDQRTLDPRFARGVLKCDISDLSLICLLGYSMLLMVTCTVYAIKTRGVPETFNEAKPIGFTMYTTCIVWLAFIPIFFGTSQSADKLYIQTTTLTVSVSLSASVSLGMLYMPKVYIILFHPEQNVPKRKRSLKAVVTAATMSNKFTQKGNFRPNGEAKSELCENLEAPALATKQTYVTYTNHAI

[6] = target: rat mGlu5 (Rattus norvegicus, UniProt P31424); assay: Calcium mobilization mGlu5 assay; format: cell-based; conditions: for fold reduction of mGlu5 potency, secondary amine to ether: 26 relative to 13, 29 relative to 4
rat mGlu5, sequence (P31424 21-1203): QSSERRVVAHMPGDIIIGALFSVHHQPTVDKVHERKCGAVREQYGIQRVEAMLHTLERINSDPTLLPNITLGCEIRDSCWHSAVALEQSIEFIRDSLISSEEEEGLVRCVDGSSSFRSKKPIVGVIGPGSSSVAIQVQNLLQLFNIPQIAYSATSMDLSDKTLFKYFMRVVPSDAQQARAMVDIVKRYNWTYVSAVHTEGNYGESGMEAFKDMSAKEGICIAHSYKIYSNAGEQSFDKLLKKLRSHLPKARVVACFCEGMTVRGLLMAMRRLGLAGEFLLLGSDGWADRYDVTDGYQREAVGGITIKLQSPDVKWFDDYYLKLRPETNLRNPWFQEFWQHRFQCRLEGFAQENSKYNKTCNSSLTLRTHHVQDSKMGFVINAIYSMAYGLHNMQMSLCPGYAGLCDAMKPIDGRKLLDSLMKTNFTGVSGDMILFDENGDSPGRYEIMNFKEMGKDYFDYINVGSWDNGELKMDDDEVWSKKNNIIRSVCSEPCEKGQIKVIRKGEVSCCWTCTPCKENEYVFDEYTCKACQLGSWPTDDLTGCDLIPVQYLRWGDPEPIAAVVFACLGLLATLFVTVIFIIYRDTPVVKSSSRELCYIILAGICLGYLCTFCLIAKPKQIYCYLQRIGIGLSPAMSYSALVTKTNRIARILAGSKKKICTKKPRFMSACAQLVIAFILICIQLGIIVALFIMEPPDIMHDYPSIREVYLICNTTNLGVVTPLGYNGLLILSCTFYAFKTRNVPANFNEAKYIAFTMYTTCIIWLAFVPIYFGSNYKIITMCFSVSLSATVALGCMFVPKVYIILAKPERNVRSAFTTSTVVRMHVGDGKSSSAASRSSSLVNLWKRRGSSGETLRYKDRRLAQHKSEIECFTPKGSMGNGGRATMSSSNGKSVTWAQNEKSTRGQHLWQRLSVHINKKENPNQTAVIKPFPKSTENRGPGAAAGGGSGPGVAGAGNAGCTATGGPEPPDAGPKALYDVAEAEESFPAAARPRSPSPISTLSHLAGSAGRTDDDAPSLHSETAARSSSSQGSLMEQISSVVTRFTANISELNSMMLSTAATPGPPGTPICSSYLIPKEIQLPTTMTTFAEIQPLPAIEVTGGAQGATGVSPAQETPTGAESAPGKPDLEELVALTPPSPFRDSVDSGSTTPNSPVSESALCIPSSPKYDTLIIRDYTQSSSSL

[7] = tested on: EGFR; conditions: read-out: EGFR autophosphorylation IC50; A431 cells; cited from earlier work

mGlu2, sequence (Q14416 19-872): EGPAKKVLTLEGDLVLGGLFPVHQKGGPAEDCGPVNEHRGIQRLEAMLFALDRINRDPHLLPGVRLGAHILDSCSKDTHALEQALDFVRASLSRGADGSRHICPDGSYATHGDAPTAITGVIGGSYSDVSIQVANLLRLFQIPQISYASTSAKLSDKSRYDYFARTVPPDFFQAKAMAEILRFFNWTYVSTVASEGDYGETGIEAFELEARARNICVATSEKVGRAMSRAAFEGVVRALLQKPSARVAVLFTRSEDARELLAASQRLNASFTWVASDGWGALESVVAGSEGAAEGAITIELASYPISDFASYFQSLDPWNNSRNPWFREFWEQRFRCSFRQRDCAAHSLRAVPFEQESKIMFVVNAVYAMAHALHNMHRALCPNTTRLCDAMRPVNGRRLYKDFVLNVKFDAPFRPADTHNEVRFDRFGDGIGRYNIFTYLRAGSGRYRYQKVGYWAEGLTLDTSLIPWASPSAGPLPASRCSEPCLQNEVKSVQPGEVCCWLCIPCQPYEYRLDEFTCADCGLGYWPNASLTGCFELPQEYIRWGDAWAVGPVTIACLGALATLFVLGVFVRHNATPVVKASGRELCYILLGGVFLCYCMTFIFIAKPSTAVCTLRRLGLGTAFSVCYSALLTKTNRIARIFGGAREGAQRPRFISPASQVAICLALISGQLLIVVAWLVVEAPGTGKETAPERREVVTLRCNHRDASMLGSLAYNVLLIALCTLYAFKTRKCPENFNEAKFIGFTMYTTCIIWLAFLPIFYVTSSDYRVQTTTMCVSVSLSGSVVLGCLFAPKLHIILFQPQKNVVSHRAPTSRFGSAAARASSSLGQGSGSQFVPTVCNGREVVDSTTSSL
mGlu8, sequence (O00222 34-908): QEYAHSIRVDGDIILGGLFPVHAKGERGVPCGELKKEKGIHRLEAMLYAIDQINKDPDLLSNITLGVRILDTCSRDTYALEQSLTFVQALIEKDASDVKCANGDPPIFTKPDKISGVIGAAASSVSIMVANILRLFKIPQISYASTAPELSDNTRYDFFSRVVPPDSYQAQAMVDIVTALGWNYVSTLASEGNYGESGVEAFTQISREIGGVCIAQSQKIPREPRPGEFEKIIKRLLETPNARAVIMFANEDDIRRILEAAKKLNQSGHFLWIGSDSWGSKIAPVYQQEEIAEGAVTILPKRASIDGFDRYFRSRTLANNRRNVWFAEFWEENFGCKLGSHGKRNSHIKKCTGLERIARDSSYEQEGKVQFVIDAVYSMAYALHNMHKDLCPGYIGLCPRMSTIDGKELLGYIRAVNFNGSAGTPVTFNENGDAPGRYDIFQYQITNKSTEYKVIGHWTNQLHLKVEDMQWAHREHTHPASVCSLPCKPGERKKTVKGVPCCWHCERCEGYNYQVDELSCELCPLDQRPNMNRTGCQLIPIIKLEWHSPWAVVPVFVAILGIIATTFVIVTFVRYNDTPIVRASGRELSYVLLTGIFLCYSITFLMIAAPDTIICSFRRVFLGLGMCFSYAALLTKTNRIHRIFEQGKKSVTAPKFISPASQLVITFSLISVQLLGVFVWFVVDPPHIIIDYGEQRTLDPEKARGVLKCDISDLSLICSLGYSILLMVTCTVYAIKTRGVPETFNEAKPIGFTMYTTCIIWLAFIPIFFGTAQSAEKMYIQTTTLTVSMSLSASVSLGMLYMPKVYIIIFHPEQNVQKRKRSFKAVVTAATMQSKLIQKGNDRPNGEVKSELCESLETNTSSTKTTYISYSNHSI
mGlu7, sequence (Q14831 35-915): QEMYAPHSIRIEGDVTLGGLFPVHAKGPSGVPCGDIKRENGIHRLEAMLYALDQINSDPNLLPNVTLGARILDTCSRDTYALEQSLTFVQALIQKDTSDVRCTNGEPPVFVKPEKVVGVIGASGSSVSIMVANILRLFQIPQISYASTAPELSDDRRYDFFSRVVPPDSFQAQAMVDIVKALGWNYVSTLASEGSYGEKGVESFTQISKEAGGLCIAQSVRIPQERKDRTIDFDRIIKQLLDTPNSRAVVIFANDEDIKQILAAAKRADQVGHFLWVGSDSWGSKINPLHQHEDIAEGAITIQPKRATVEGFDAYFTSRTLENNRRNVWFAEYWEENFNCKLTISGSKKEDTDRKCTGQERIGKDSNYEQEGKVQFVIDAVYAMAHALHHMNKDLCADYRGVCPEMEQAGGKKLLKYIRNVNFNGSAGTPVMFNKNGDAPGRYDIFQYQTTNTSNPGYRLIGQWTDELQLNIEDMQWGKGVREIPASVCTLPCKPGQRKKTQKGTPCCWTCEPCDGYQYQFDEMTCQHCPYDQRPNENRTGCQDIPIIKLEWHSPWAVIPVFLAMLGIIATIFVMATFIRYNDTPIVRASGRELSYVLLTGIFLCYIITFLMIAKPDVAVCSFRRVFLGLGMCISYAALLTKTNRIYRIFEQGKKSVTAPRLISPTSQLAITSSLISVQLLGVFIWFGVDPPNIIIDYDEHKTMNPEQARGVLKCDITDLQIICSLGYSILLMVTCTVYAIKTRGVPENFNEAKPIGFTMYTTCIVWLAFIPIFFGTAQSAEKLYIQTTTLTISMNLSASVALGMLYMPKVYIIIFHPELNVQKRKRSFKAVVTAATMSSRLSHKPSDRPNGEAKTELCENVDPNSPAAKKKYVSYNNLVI

Row | activity against mGlu7 [1] | activity against mGlu2 [2] | activity against mGlu8 [3] | activity against mGlu3 [4] | activity against mGlu4 [5] | SMILES | other results
1 | inactive | inactive | inactive | inactive | inactive | Clc1cccc(Nc2ncnc3ccc(Br)cc23)c1 [Compound 1] | –
2 | inactive | inactive | inactive | inactive | inactive | Clc1ccc2ncnc(Nc3cccc(Br)c3)c2c1 [Compound 13] | –
3 | inactive | inactive | inactive | inactive | inactive | Fc1ccc2ncnc(Nc3cccc(Br)c3)c2c1 [Compound 32] | –

Second part, the molecule before the results:

Row | SMILES | activity against mGlu7 [1] | activity against mGlu2 [2] | activity against mGlu8 [3] | activity against mGlu3 [4] | activity against mGlu4 [5] | other results
4 | FC(F)(F)c1cccc(Nc2ncnc3ccc(Br)cc23)c1 [Compound 6] | – | – | – | – | – | fold less potent at mGlu5 than 5 ([6]; relative to 3-methylaniline 5): 7 fold
5 | Clc1cccc(Nc2ncnc3ccc(Cl)cc23)c1 [Compound 9] | – | – | – | – | – | IC50 [7]: 2700 nM
6 | Brc1cccc(Nc2nccc3ccc(Br)cc23)c1 [Compound 15] | – | – | – | – | – | fold reduction of mGlu5 activity relative to 4 ([6]; relative to 6-bromoquinazoline comparator 4): approximately 25 fold
7 | Clc1ccc2ncnc(Oc3cccc(Br)c3)c2c1 [Compound 26] | – | – | – | – | – | fold reduction of mGlu5 potency, secondary amine to ether [6]: more than 50 fold
8 | Brc1cccc(Oc2ncnc3ccc(Br)cc23)c1 [Compound 29] | – | – | – | – | – | fold reduction of mGlu5 potency, secondary amine to ether [6]: more than 50 fold
9 | CCc1cccc(Nc2ncnc3ccc(F)cc23)c1 [Compound 36] | – | – | – | – | – | % Glu max ([6]; amplitude of response in the presence of 30 μM test compound as a percentage of maximal response (100 μM glutamate), average of n ≥ 3): weak potentiator

— article PMC2801349 (Bioorganic & medicinal chemistry letters, 2009)
